Assay results taken from PubChem BioAssay (NCI).
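Growth conditions: 96-well plates. Treatment: test compound, 48 hours, 5 concentrations. Analysis: linear interpolation between bracketing concentrations; unreached endpoints set to highest concentration. The concentration for full growth arrest is given as TGI.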

How the values were obtained:
Experiment in all cases: inhibition of tumour cell growth, NCI panel, 48 h
IGROV1 ovarian = tested on: IGROV1 ovarian
OVCAR-8 ovarian = tested on: OVCAR-8 ovarian
XF 498 CNS = tested on: XF 498 CNS
HCT-116 colon = tested on: HCT-116 colon
SNB-78 CNS = tested on: SNB-78 CNS
NCI-H522 lung = tested on: NCI-H522 lung
OVCAR-3 ovarian = tested on: OVCAR-3 ovarian
HOP-92 NSCLC = tested on: HOP-92 NSCLC
SK-MEL-5 melanoma = tested on: SK-MEL-5 melanoma
NCI-H226 lung = tested on: NCI-H226 lung
RXF-631 renal = tested on: RXF-631 renal
HCC-2998 colon = tested on: HCC-2998 colon
TK-10 renal = tested on: TK-10 renal
RPMI-8226 leukemia = tested on: RPMI-8226 leukemia
SK-MEL-28 melanoma = tested on: SK-MEL-28 melanoma
ACHN renal = tested on: ACHN renal
K-562 leukemia = tested on: K-562 leukemia
HL-60(TB) leukemia = tested on: HL-60(TB) leukemia
HCT-15 colon = tested on: HCT-15 colon
SK-OV-3 ovarian = tested on: SK-OV-3 ovarian
SF-539 CNS = tested on: SF-539 CNS
SNB-75 CNS = tested on: SNB-75 CNS
DLD-1 colon = tested on: DLD-1 colon
HOP-62 NSCLC = tested on: HOP-62 NSCLC
SK-MEL-2 melanoma = tested on: SK-MEL-2 melanoma
LOX IMVI melanoma = tested on: LOX IMVI melanoma
CCRF-CEM leukemia = tested on: CCRF-CEM leukemia
MOLT-4 leukemia = tested on: MOLT-4 leukemia
SN12C renal = tested on: SN12C renal
OVCAR-4 ovarian = tested on: OVCAR-4 ovarian
SF-295 CNS = tested on: SF-295 CNS
NCI-H23 lung = tested on: NCI-H23 lung
CAKI-1 renal = tested on: CAKI-1 renal
SR leukemia = tested on: SR leukemia
MALME-3M melanoma = tested on: MALME-3M melanoma
RXF 393 renal = tested on: RXF 393 renal
U251 CNS = tested on: U251 CNS
KM12 colon = tested on: KM12 colon
OVCAR-5 ovarian = tested on: OVCAR-5 ovarian
UACC-257 melanoma = tested on: UACC-257 melanoma
SF-268 CNS = tested on: SF-268 CNS
M19-MEL melanoma = tested on: M19-MEL melanoma
DMS 114 small cell lung = tested on: DMS 114 small cell lung
A549 NSCLC = tested on: A549 NSCLC
LXFL 529 NSCLC = tested on: LXFL 529 NSCLC
UACC-62 melanoma = tested on: UACC-62 melanoma
DMS 273 small cell lung = tested on: DMS 273 small cell lung
M14 melanoma = tested on: M14 melanoma
SW-620 colon = tested on: SW-620 colon
HT29 colon = tested on: HT29 colon
KM20L2 colon = tested on: KM20L2 colon
SNB-19 CNS = tested on: SNB-19 CNS
786-0 renal = tested on: 786-0 renal
NCI-H460 lung = tested on: NCI-H460 lung
UO-31 renal = tested on: UO-31 renal
COLO 205 colon = tested on: COLO 205 colon
EKVX NSCLC = tested on: EKVX NSCLC
A498 renal = tested on: A498 renal
HOP-18 NSCLC = tested on: HOP-18 NSCLC

## CC1NS(=O)(=O)N(C)C1=O (stereo unspecified)
IGROV1 ovarian
  TGI: > 100 µM
OVCAR-8 ovarian
  TGI: > 100 µM
XF 498 CNS
  TGI: > 100 µM
HCT-116 colon
  TGI: > 100 µM
SNB-78 CNS
  TGI: > 100 µM
NCI-H522 lung
  TGI: > 100 µM
OVCAR-3 ovarian
  TGI: > 100 µM
HOP-92 NSCLC
  TGI: > 100 µM
SK-MEL-5 melanoma
  TGI: > 100 µM
NCI-H226 lung
  TGI: > 100 µM
RXF-631 renal
  TGI: > 100 µM
HCC-2998 colon
  TGI: > 100 µM
TK-10 renal
  TGI: > 100 µM
RPMI-8226 leukemia
  TGI: > 100 µM
SK-MEL-28 melanoma
  TGI: > 100 µM
ACHN renal
  TGI: > 100 µM
K-562 leukemia
  TGI: > 100 µM
HL-60(TB) leukemia
  TGI: > 100 µM
HCT-15 colon
  TGI: > 100 µM
SK-OV-3 ovarian
  TGI: > 100 µM
SF-539 CNS
  TGI: > 100 µM
SNB-75 CNS
  TGI: > 100 µM
DLD-1 colon
  TGI: > 100 µM
HOP-62 NSCLC
  TGI: > 100 µM
SK-MEL-2 melanoma
  TGI: > 100 µM
LOX IMVI melanoma
  TGI: > 100 µM
CCRF-CEM leukemia
  TGI: > 100 µM
MOLT-4 leukemia
  TGI: > 100 µM
SN12C renal
  TGI: > 100 µM
OVCAR-4 ovarian
  TGI: > 100 µM
SF-295 CNS
  TGI: > 100 µM
NCI-H23 lung
  TGI: > 100 µM
CAKI-1 renal
  TGI: > 100 µM
SR leukemia
  TGI: > 100 µM
MALME-3M melanoma
  TGI: > 100 µM
RXF 393 renal
  TGI: > 100 µM
U251 CNS
  TGI: > 100 µM
KM12 colon
  TGI: > 100 µM
OVCAR-5 ovarian
  TGI: > 100 µM
UACC-257 melanoma
  TGI: > 100 µM
SF-268 CNS
  TGI: > 100 µM
M19-MEL melanoma
  TGI: > 100 µM
DMS 114 small cell lung
  TGI: > 100 µM
A549 NSCLC
  TGI: > 100 µM
LXFL 529 NSCLC
  TGI: > 100 µM
UACC-62 melanoma
  TGI: > 100 µM
DMS 273 small cell lung
  TGI: > 100 µM
M14 melanoma
  TGI: > 100 µM
SW-620 colon
  TGI: > 100 µM

## COc1ccc(C(=C[N+](=O)[O-])c2ccc(OC)cc2)cc1
IGROV1 ovarian
  TGI: > 63.3 µM
HT29 colon
  TGI: 20.1 µM
OVCAR-8 ovarian
  TGI: 37.9 µM
HCT-116 colon
  TGI: 27.8 µM
KM20L2 colon
  TGI: 26.9 µM
SNB-78 CNS
  TGI: > 84.5 µM
NCI-H522 lung
  TGI: 32.7 µM
OVCAR-3 ovarian
  TGI: 46.1 µM
HOP-92 NSCLC
  TGI: > 100 µM
SK-MEL-5 melanoma
  TGI: > 100 µM
NCI-H226 lung
  TGI: 52.4 µM
RXF-631 renal
  TGI: > 100 µM
HCC-2998 colon
  TGI: 31.5 µM
TK-10 renal
  TGI: 99.3 µM
SNB-19 CNS
  TGI: > 94.4 µM
786-0 renal
  TGI: > 89 µM
RPMI-8226 leukemia
  TGI: 26.3 µM
SK-MEL-28 melanoma
  TGI: > 100 µM
ACHN renal
  TGI: > 100 µM
K-562 leukemia
  TGI: > 100 µM
HL-60(TB) leukemia
  TGI: > 34.7 µM
HCT-15 colon
  TGI: > 100 µM
SK-OV-3 ovarian
  TGI: 36.2 µM
SF-539 CNS
  TGI: 29.3 µM
SNB-75 CNS
  TGI: 30.3 µM
DLD-1 colon
  TGI: > 84.3 µM
HOP-62 NSCLC
  TGI: 50.6 µM
SK-MEL-2 melanoma
  TGI: 33.3 µM
LOX IMVI melanoma
  TGI: 46.4 µM
CCRF-CEM leukemia
  TGI: > 92.7 µM
MOLT-4 leukemia
  TGI: 29.3 µM
SN12C renal
  TGI: > 100 µM
OVCAR-4 ovarian
  TGI: > 100 µM
SF-295 CNS
  TGI: 25.1 µM
NCI-H23 lung
  TGI: > 57.1 µM
NCI-H460 lung
  TGI: 54.7 µM
CAKI-1 renal
  TGI: > 100 µM
SR leukemia
  TGI: 45.1 µM
MALME-3M melanoma
  TGI: > 100 µM
RXF 393 renal
  TGI: 49.1 µM
U251 CNS
  TGI: 17.9 µM
UO-31 renal
  TGI: 88.9 µM
KM12 colon
  TGI: > 46.5 µM
OVCAR-5 ovarian
  TGI: 99.5 µM
UACC-257 melanoma
  TGI: > 92.6 µM
SF-268 CNS
  TGI: > 100 µM
COLO 205 colon
  TGI: 15.5 µM
DMS 114 small cell lung
  TGI: 23.7 µM
A549 NSCLC
  TGI: > 100 µM
EKVX NSCLC
  TGI: > 100 µM
LXFL 529 NSCLC
  TGI: > 100 µM
UACC-62 melanoma
  TGI: > 100 µM
A498 renal
  TGI: 41.3 µM
DMS 273 small cell lung
  TGI: 22.9 µM
HOP-18 NSCLC
  TGI: > 100 µM
M14 melanoma
  TGI: 41.8 µM
SW-620 colon
  TGI: > 73.3 µM
